Data on two compounds can be found in patent US12414948B2, “Methods” (INTRA-CELLULAR THERAPIES, INC., priority 2022, dated 2025).

The test system of experiment [1] is hippocampal microglia mRNA (Il1b, Il6, Tnfa, Nlrp3, Csf1r). Description: mRNA (RT-qPCR) in microglia enriched from rat hippocampus after LPS. Type of experiment: in vivo. Conditions: rats, LPS 500 μg/kg; label LPS = LPS + vehicle, label Luma = Luma 3 mg/kg 16 h after LPS; microglia isolated +18 h; normalized to control (Dct). The procedure: Microglia Enrichment. […] Brain tissue is then processed through a dounce homogenizer followed by passages through 16- and 20-gauge needles. One mL of medium A is added to wash cell suspension, which is passed through a […] cell strainer and kept on ice. Next, 6 mL of 100% Percoll solution (9 parts of Percoll [GE Healthcare, Chicago, IL] and 1 part of HBSS) is added to obtain a 75% Percoll solution. The 75% Percoll cell suspension is then underlaid a layer of 25% Percoll solution containing Phenol red, which has a layer of PBS on top. The discontinuous Percoll density gradient is layered as followed: 75%, 25%, and 0% isotonic Percoll (PBS) to isolate hippocampal microglia. The gradients are then centrifuged at 4° C. for 25 minutes at 3,000 rpm in swinging buckets with minimal acceleration and deceleration and no brake. After centrifugation, the top layer containing myelin and debris (interface PBS/25% Percoll) is removed and the cellular layer at the 25%/75% interphase is collected and washed. Pilot experiments compare the gene expression of the different fractions and validated the presence of microglia in the interphase layer. The final pellet is resuspended in 350 μL of Buffer RLT from Qiagen microkit (Qiagen) to perform RNA extraction according to the manufacturer's instructions.
Exploratory experiments reveal that in microglia-enriched fractions from rat hippocampi, inflammation is returned closer to background levels at +26 hours after a dose of LPS. Thus, an earlier time point of +18 h after the LPS injection is selected to assess potential changes indicative of inflammation.
Hippocampi on both sides of the brain are collected 2 hours later (+18 hour from LPS injection) and microglia are rapidly isolated in an enriched fraction by Percoll gradient. RNA is extracted from the resulting, reconstituted cell pellet and RT-qPCR is performed. The results are shown in Table 7 as relative change in mRNA levels for each cytokine gene (Il1b, Il6, Tnfa, Nlrp3, Csf1r) normalized to the control group using the Dct method (n=8-12 per group): […]

Experiment [2] concerns serum cytokines IL-1b, IL-6, TNF-alpha, IL-10. The experiment is described as follows: Serum cytokine protein (Multiplex MSD) after acute restraint stress. Type of experiment: in vivo, mouse. Conditions: mice, 2 h restraint stress; Luma 3 mg/kg IP immediately before. The procedure: Multiplex Assays. In mouse serum, protein levels of IL-1b, IL-6, IL-10 and TNF-alpha are measured using a V-Plex Meso Scale Discovery (MSD) Multiplex spot assay Mouse Neuroinflammation 1 panel (Meso Scale Diagnostics, Rockville, MD). All samples are run in duplicates or triplicates according to manufacturer instructions and analyzed with MSD Discovery Workbench software (Meso Scale Diagnostics).
Restraint Stress Protocol.
Control mice receive vehicle treatment and are returned to their home cage before sample collection. Protein concentration is measured using the Multiplex MSD assay V-Plex technology, normalized to the control group. Results are expressed in pg/mL.

The test system of experiment [3] is hippocampal mRNA (Il1b, Il6, Tnfa, Il10, Icam1, Cldn5, Csf1). The experiment is described as follows: Hippocampal mRNA (qRT-PCR), delayed injection of lumateperone 30 minutes after LPS. Type of experiment: in vivo, mouse. The note with it: for Hippocampal mRNA expression (delayed injection) Cldn5 / Hippocampal mRNA expression (delayed injection) Csf1 / Hippocampal mRNA expression (delayed injection) Icam1: normalized to control. The protocol:
All other reagents are obtained in the highest purity available from Sigma-Aldrich (St. Louis, MO) unless otherwise noted. […] Some rodents are given a cotreatment with a subcutaneous (SC) injection of lipopolysaccharide (LPS, 500 μg/kg; Sigma-Aldrich, ref #0127:B8) diluted in 0.9% injectable saline while control group animals receive injections of all vehicles matching the experimental conditions. […] On day 2, either no injection for naïve rats, or saline or LPS is injected (1 mg/kg, SC).
Quantitative Real-Time PCR. Mouse hippocampal tissue is homogenized with glass beads in 1 mL of TRIzol reagent using a BeadBeater (Biospec Products, Bartlesville, OK). Heavy phase-lock gel tubes enabled separation of phases following the addition of 400 μL chloroform to the sample and centrifugation at 12,000 rpm for 10 minutes at room temperature. RNA is extracted using Qiagen Rneasy kit (Qiagen, Hilden, Germany). For cDNA synthesis, 2 μg of total RNA is used (SuperScript IV Reverse Transcriptase; ThermoFisher Scientific, Waltham, MA). […] In the hippocampus, 4 key markers of pro- and anti-inflammatory cytokines and chemokines (Il1b: ID Mm00434228_m1, Tnfa: ID Mm00443258_m1, 116: ID Mm00446190_m1, and I110: ID Mm01288386_m1; ThermoFisher Scientific) are initially chosen for analysis (n=5-12 per group). In subsequent experiments, the transcripts for other markers of inflammation are chosen for analysis including Icam1 (ID Mm00516023_m1; a cell adhesion molecule involved in immune cell migration), Cldn5 (ID Mm00727012_s1; a tight junctions protein), colony stimulating factor 1 (Csf1: ID Mm00432686_m1; a factor that regulates microglia function) and its receptor Csf1r (ID Mm01266652_m1), and the nucleotide binding and oligomerization domain-like receptor family pyrin domain-containing 3 inflammasome complex (Nlrp3: Mm00840904_m1). Gapdh (ID Mm99999915_g1) is chosen as a housekeeping gene. QuantStudio 7 (ThermoFisher Scientific) is used for analyzing the plates (MicroAmp Optical 384-well plates; Applied Biosystems, Waltham, MA, and ThermoFisher Scientific) that are loaded with TaqMan Universal Master Mix II without uracil-DNA glycosylate in a 20 μl reaction volume using 100 ng cDNA per well. All mRNAs are measured by qRT-PCR on ABI Prism 7900HT system using TaqMan Gene Expression Assays. Ct values of genes of interest are normalized to that of the reference gene (Gapdh).
Samples are collected 1.5 hours later (i.e., 2 hours after LPS injection).
A general note: Real-time PCR tracks product formation cycle by cycle.

Setting [4] is: LPS 500 μg/kg SC-challenged mice, label LPS = LPS + vehicle, label Luma = Luma 3 mg/kg IP 30 min after LPS, 2 h after LPS.
The mark [5] stands for this setting: LPS 500 μg/kg SC-challenged mice, label LPS = LPS + vehicle, label Luma = Luma 3 mg/kg IP 30 min after LPS, 2 h after LPS, normalized to control (Dct).
Where [6] appears, read: mice, saline SC then Luma 3 mg/kg IP 30 min later (no LPS).
[7] abbreviates: mice, saline SC then Luma 3 mg/kg IP 30 min later (no LPS), samples 1.5 h later, normalized to control (Dct).

With `CN1CCN2c3c(cccc31)[C@@H]1CN(CCCC(=O)c3ccc(F)cc3)CC[C@@H]12` [Luma, lumateperone], in experiment [1], the “Hippocampal microglial cytokine mRNA expression IL-1b” value amounted to 0.38, the “Hippocampal microglial cytokine mRNA expression IL-6” value is −0.22, the “Hippocampal microglial cytokine mRNA expression TNF-alpha” value was −1.00 and the “Hippocampal microglial mRNA expression Csf1R” value is −0.05. Further, the “Hippocampal microglial mRNA expression NLRP3” value in experiment [1] was −0.48. For the same compound, in experiment [2], the “Serum cytokine concentration IL-1b” value worked out at 0.81 pg/mL. Moreover, in experiment [3] (setting [4]), the “Hippocampal mRNA expression (delayed injection) Cldn5” value was determined as 0.20 and the “Hippocampal mRNA expression (delayed injection) Csf1” value was −0.11. In experiment [3] (setting [5]), the “Hippocampal cytokine mRNA expression (delayed injection) IL-6” value is on record as −0.10 and the “Hippocampal cytokine mRNA expression (delayed injection) TNF-alpha” value is on record as 0.34. For the same compound, in experiment [3] (setting [6]), the “Hippocampal mRNA expression (delayed injection) Cldn5” value came to 0.33, the “Hippocampal mRNA expression (delayed injection) Csf1” value is 0.05 and the “Hippocampal mRNA expression (delayed injection) Icam1” value is given as 0.28. Moreover, in experiment [3] (setting [7]), the “Hippocampal cytokine mRNA expression (delayed injection) IL-1b” value was 0.90, the “Hippocampal cytokine mRNA expression (delayed injection) IL-6” value is given as −0.46 and the “Hippocampal cytokine mRNA expression (delayed injection) TNF-alpha” value was −0.31.
Turning to “lipopolysaccharide [LPS, reference compound]”, in experiment [1], the “Hippocampal microglial cytokine mRNA expression IL-1b” value was determined as 2.82, the “Hippocampal microglial cytokine mRNA expression IL-6” value was determined as 0.89, the “Hippocampal microglial cytokine mRNA expression TNF-alpha” value was −0.28 and the “Hippocampal microglial mRNA expression Csf1R” value is 0.50. Further, the “Hippocampal microglial mRNA expression NLRP3” value in experiment [1] amounted to 0.71. Further, in experiment [3] (setting [4]), the “Hippocampal mRNA expression (delayed injection) Cldn5” value is listed as −0.63, the “Hippocampal mRNA expression (delayed injection) Csf1” value is reported as 0.41 and the “Hippocampal mRNA expression (delayed injection) Icam1” value turned out to be 4.33. Besides, in experiment [3] (setting [5]), the “Hippocampal cytokine mRNA expression (delayed injection) IL-1b” value amounted to 2.89, the “Hippocampal cytokine mRNA expression (delayed injection) IL-6” value worked out at 1.10, the “Hippocampal cytokine mRNA expression (delayed injection) IL-10” value is 1.88 and the “Hippocampal cytokine mRNA expression (delayed injection) TNF-alpha” value came out at 2.33.
